Data taken from PubChem BioAssay (NCI).
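Cells were grown in 96-well plates and exposed to each compound for 48 hours at five concentrations; endpoints were interpolated linearly between bracketing concentrations, or set to the highest concentration if not reached. GI50 = concentration required for 50% inhibition of growth. TGI: concentration producing complete growth inhibition.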

Assays:
Experiment in all cases: NCI tumour cell line growth inhibition, 48 h
[1] = tested on: RPMI-8226 leukemia
[2] = tested on: SR leukemia
[3] = tested on: MOLT-4 leukemia
[4] = tested on: HCT-116 colon
[5] = tested on: COLO 205 colon
[6] = tested on: EKVX NSCLC
[7] = tested on: MDA-MB-435
[8] = tested on: MDA-MB-231 breast
[9] = tested on: DU-145 prostate
[10] = tested on: MCF7 breast

Compound	TGI [1]	TGI [2]	TGI [3]	TGI [4]	TGI [5]	TGI [6]	GI50 [7]	TGI [7]	GI50 [6]	GI50 [8]	TGI [8]	GI50 [2]	GI50 [3]	GI50 [9]	TGI [9]	GI50 [4]	GI50 [10]	TGI [10]	GI50 [5]	GI50 [1]
Cc1nc(C(=O)O)c2ccccc2n1	> 100 µM	> 100 µM	> 100 µM	> 100 µM	> 100 µM															
CC(C)=CC(=O)N(C)C1C2CN3CCC(O2)C13 (stereo not given)			> 100 µM	> 100 µM	> 100 µM	> 100 µM														
N#Cc1ccc(C=NC23CC4CC(CC(C4)C2)C3)cc1	> 100 µM	> 100 µM	> 100 µM	> 100 µM	> 100 µM	> 100 µM														
CCCCCCCCCCCCC(Br)C(=O)NCC(N)=O (stereo not given)				3.72 µM	39.2 µM	42 µM														
O=S(=O)(/C=C/C(=C/c1ccccc1)S(=O)(=O)c1ccccc1)c1ccccc1	3.4 µM	4.41 µM	5.21 µM	3.13 µM	4.31 µM	3.15 µM														
O=C(CCCCCCN1CC(=O)N2[C@@H](c3ccc(Cl)c(Cl)c3)c3[nH]c4ccccc4c3C[C@H]2C1=O)NO		3.1 µM	17.3 µM	6.92 µM	10.1 µM	> 33.3 µM	3.13 µM	8.06 µM	7.71 µM	3.47 µM	9.31 µM	0.689 µM	1.12 µM	4.01 µM	15.3 µM	1.47 µM	1.87 µM	15 µM	3.5 µM	
N#CC(C#N)c1ccc(C(=O)N2CCC[C@H]2CO)cc1	> 100 µM		> 100 µM		> 100 µM	> 100 µM														
COCCNC(=O)C1C(=O)C(=O)N(CCOC)C1=O (stereo not given)		> 100 µM		> 100 µM	> 100 µM	> 100 µM														
Cc1cc(C)nc(NS(=O)(=O)c2ccc(Nc3c4ccccc4nc4c(C(=O)Nc5ccc(S(=O)(=O)N=C(N)N)cc5)cccc34)cc2)n1	> 100 µM		> 100 µM		> 100 µM	> 100 µM														
COc1cc2c(cc1OCCCCN1CCN(C(=S)SCCC(C#N)(c3ccccc3)c3ccccc3)CC1)N=C[C@@H]1CCCN1C2=O	2.89 µM				5.66 µM	5.74 µM	1.04 µM	2.81 µM	1.88 µM	1.53 µM	4.73 µM						0.435 µM	2.23 µM	1.4 µM	0.496 µM
NC(=O)NNC(=O)NC12CC3CC(CC(C3)C1)C2			> 100 µM	> 100 µM	> 100 µM	> 100 µM														
Cc1ccc(C)c(N2C(=O)C(=O)C(c3nc4ccccc4s3)/C(=N/NC(=O)NN)C2=O)c1 (stereo not given)		> 100 µM	> 100 µM	> 100 µM	> 100 µM	> 100 µM														
Cc1ccc(S(=O)(=O)N/N=C(/CC(=O)c2c(C)n([O-])c3ccccc3[n+]2=O)C(=O)Nc2ccccc2C)cc1	> 100 µM	> 100 µM		> 100 µM	> 100 µM	> 100 µM														
C(=N/N(Cc1ccccc1)Cc1ccccc1)/c1ccccc1	> 100 µM			> 100 µM	> 100 µM	> 100 µM	77.3 µM	> 100 µM	59.3 µM	> 100 µM	> 100 µM			> 100 µM	> 100 µM	26.1 µM	42.9 µM	> 100 µM	> 100 µM	51.8 µM
COc1ccc(N(CC(=O)NCCC[Te]c2ccccc2)C(=O)CNC(=O)OC(C)(C)C)cc1	7.3 µM	7.75 µM	9.89 µM	6.45 µM	3.83 µM	2.35 µM	3.31 µM	13.5 µM	0.343 µM			1.66 µM	3.08 µM	2.91 µM	7.6 µM	2.07 µM	2.57 µM	7.59 µM	2.01 µM	2.4 µM
CCN(CC)CCCCCCNc1cc(OC)cc2cccnc12	5.45 µM	4.1 µM	3.86 µM	3.55 µM	3.85 µM	26.3 µM	1.84 µM	3.63 µM	13.4 µM			1.99 µM	1.84 µM	1.8 µM	3.65 µM	1.93 µM	1.74 µM	3.56 µM	1.94 µM	2.38 µM
O=[N+]([O-])c1ccc(N2CCOCC2)c2c1no[n+]2[O-]	4.09 µM		3.43 µM	2.24 µM	2.24 µM	6.72 µM	2.15 µM	7.35 µM	1.93 µM	2.7 µM	15.6 µM		0.85 µM	1.42 µM	5.76 µM	0.965 µM	0.543 µM	2.96 µM	0.906 µM	1.51 µM
